Measurements: patent US20150297643A1, “INHIBITION OF RHO AND OR ROCK AND CELL TRANSPLANTATION” (priority 2012, published 2015)

Tested on: retinal ganglion cells (RGCs)
Type: in vivo, rat

In the case of `C[C@@H](N)C1CCN(S(=O)(=O)c2cccc3cnccc23)CC1` [BA-1049], the “neuroprotection of RGCs” value (highest dose tested (10 uM and 100 uM BA-1049 tested)) is reported as “modest neuroprotection” and the “effect on RGC survival (FIG. 5)” value (very high concentration (1 mM)) is reported as “detectable effect”.
For `C[C@@H](N)[C@H]1CC[C@H](C(=O)Nc2ccncc2)CC1` [Y-27632], the “neuroprotective effect on RGCs” value (100 uM and 1 mM Y-27632, one week after optic nerve injury) was “No neuroprotective effect” and the “rescue of neurons from trauma-induced cell death (Example 8, summary)” value (rat, in vivo) was “not able to rescue neurons from trauma-induced cell death”.
C3-transferase was tested, and the “RGCs protected after axotomy” value (rat, in vivo) was 80%.
